Measurements as given in PMC8603350, “A Remote Secondary Binding Pocket Promotes Heteromultivalent Targeting of DC-SIGN” (Journal of the American Chemical Society, 2021).
Residue numbers refer to the chain shown, from its start. Entries after “also recorded” stand apart in the source; their conditions may differ.

How the values were obtained:
DC-SIGN CRD M270F = molecular target: T1, DC-SIGN CRD M270F (Homo sapiens, UniProt Q9NNX6, M270F); assay: 15N HSQC NMR binding experiments with M270F mutant; details: absence of Ca2+
T1 construct: His-tagged DC-SIGN CRD wild-type as well as the M270F mutant; His-tag; made in house; host or cells: E. coli BL21(DE3), pET28a; gene from GenScript
T1 sequence (Q9NNX6 263-378 M270F limits assumed): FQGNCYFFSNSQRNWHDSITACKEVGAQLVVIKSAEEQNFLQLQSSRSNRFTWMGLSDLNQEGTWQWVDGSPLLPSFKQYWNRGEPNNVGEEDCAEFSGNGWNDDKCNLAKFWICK

DC-SIGN CRD = molecular target: T2, DC-SIGN CRD (Homo sapiens, UniProt Q9NNX6); assay: 15N HSQC NMR titration; type: binding; details: 10 mM CaCl2, MES pH 6.0
T2 construct: His-tagged DC-SIGN CRD wild-type as well as the M270F mutant; His-tag; made in house; host or cells: E. coli BL21(DE3), pET28a; gene from GenScript
T2 sequence (Q9NNX6 263-378 limits assumed): T1 sequence (Q9NNX6 263-378 M270F limits assumed) with F8M

DC-SIGN ECD [1] = molecular target: T3, DC-SIGN ECD (Homo sapiens, UniProt Q9NNX6); assay: Direct 19F R2-filtered NMR binding experiments (CF3 resonance)
T3 construct: DC-SIGN extracellular domain (ECD); made in house; host or cells: E. coli BL21(DE3), pET30b; gene from GenScript
T3 sequence (Q9NNX6 59-404 limits assumed): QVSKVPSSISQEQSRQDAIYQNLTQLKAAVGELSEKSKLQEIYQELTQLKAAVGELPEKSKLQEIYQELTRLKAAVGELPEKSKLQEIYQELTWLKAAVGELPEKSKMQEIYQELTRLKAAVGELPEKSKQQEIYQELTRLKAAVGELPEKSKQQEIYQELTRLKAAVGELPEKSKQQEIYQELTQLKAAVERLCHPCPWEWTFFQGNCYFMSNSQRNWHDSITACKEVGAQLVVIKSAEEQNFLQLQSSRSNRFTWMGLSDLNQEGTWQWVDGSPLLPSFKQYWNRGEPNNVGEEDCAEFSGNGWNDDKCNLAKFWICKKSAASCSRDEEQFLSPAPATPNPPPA
Experimental: KI values were determined as previously described for Langerin and the DC-SIGN CRD.6 Briefly, competitive binding experiments were conducted with 49 at a concentration of 0.1 mM and varying competitor concentrations [I]T. KI and [P]T values were derived from Equation 8 in a two-parameter fit.
R2,obs = R2,f + (R2,b − R2,f)pb […]
θ = cos−1 ( ) ,a = KD + KI + [L]T + [I]T − [P]T
b = ([I]T − [P]T)KD + ([L]T − [P]T)KD + KIKD, c = −KIKD[P]T
KD determination from 19F NMR CSPs
For KD determination from 19F NMR CSPs, samples and measurements were set up as described for 19F R2-filtered NMR but at a single relaxation time T = 0 s. CSP 19F, T were calculated from the chemical shift of the 19F resonance of 48 in the presence of protein δT at increasing ligand concentrations and the chemical shift in absence of protein δf at a concentration of 1 mM via Equation 4.
The KD value was calculated from CSP19F, T values in a two -parameter fit using Equation 10, using a fixed protein concentration [P] T and a CSP19F of 0 ppm as a lower bound. CSP19F,b corresponds to the top asymptote and was kept variable. As in Equation 9, pb represents the fraction of bound protein.

DC-SIGN+ Raji cells = assay: Liposome binding assay, flow cytometry; type: cell-based
Experimental: If not stated otherwise, all media and supplements for cell culture experiments were purchased from Thermo Fisher Scientific. Raji, THP-1 and U937 cell lines (ATCC) were grown in complete growth medium containing RPMI1640 medium, 10% FCS, 100 U mL-1 Penicillin-Streptomycin and GlutaMax at 37°C and 5% CO2. Cells were monitored with a light microscope (IT40 5PH, VWR) and subcultured every 2 -3 days to maintain cell densities ranging from of 0.5 - 3 x 10^6 cells per mL.
CLR-expressing cell lines were generated as described before.4,27 Briefly, DC-SIGN, Langerin, murine Langerin and murine Dectin-1 cDNAs (Sinobiologicals) were cloned into a lentiviral BIC-PGK-Zeo-T2a-mAmetrine:EF1A construct by Gibson assembly (NEB) according to the manufacturer’s protocol. HEK293 cells were transfected with the lentiviral vector together with third-generation packaging vectors and viral particles were then used for transduction of Raji cells. In analogy, DC-SIGN and Langerin-expressing THP-1 and U937 cell lines were generated by lentiviral transduction.
Liposome binding assay – flow cytometry
Liposome binding to CLR-expressing cells was assayed as previously described.27 Briefly, 0.05 x 10^6 cells were plated in transparent conical-bottom 96 well microtiter plates (Nunc) in a volume of 100 µL medium. Plates were centrifuged at 500 x g for 3 minutes, supernatant was aspirated, and cells were resuspended in 100 µL medium, containing 16 µM liposomes. In control experiments, cells were incubated with medium containing 10 mM EDTA or 50 µg mL-1 mannan for 15 min at 4 °C, prior to liposome application. After 1 h incubation at 4 °C in the dark, cells were centrifuged at 500 x g for 3 min and the supernatant was discarded. Cells wer e resuspended in 200 µL ice-cold medium and analyzed by detecting the co-formulated Alexa 647 dye via flow cytometry with a 654 nm laser and a 670/14 nm filter (Attune Nxt, life technologies).
Flow cytometry data was processed using FlowJo (BD Bioscience). Mean fluorescence intensity (MFI) was further analyzed and plotted using GraphPad Prism (GraphPad […]
To monitor allosteric activation of DC-SIGN by glycomimetic 48, the described protocol was adjusted as follows. DC-SIGN+ Raji cells were plated in transparent conical-bottom 96 well microtiter plates (Nunc) in a volume of 100 µL medium. Plates were centrifuged at 500 x g for 3 minutes, supernatant was aspirated, and cell were resuspended in 25 µL medium supplemented with varying concentrations of monovalent carbohydrates or 0.5 mM 48. Homomultivalent liposomes carrying either natural carbohydrates or 48 were added at a final concentration of 16 µM. Liposome binding was subsequently quantified by measuring Alexa 647 fluorescence in flow cytometry experiments. Statistical significance by means of a student’s t-test was assessed based on averaged normalized MFIs from four biological replicates each conducted as technical duplicates. A p-value < 0.05 was set as significance cut-off.

DC-SIGN ECD [2] = molecular target: T3, DC-SIGN ECD; assay: 19F NMR reporter displacement assay transferred to DC-SIGN ECD; type: binding; details: 0.1 mM reporter 49; for 48 estimated, receptor precipitation above 1 mM
DC-SIGN ECD [3] = molecular target: T3, DC-SIGN ECD; assay: KD determination from 19F NMR CSPs; type: binding; details: direct observation of CF3 chemical shift; read-out: KD (19F CSP)

Compound: NC[C@H]1O[C@H](Oc2ccc(-c3ccc(C(=O)O)cc3)cc2C(F)(F)F)[C@@H](O)[C@@H](O)[C@@H]1O [compound 48]
- binding to M270F mutant (DC-SIGN CRD M270F): abrogation of 48-binding
- Kd (DC-SIGN CRD): 460 ± 160 µM
- Kd (DC-SIGN ECD [1]; direct observation of CF3 relaxation rate R2,obs): 480 ± 100 µM
- apparent KD values lower than the determined KI (DC-SIGN ECD [1]; direct-binding NMR KD vs RDA KI): about 3 fold
- effect of soluble compound on binding of Fuc-Lip liposomes (DC-SIGN+ Raji cells; 0.5 mM soluble 48, liposomes with 2.5 mol % Fuc-Lip, p < 0.05, n = 4): significantly enhances; also recorded: significantly increased
- binding of homomultivalent liposomes (DC-SIGN+ Raji cells; 42-Lip up to 1.26%, 48 up to 1.66% total lipid concentration): does not show any binding
- molar glycomimetic/Man ratio around which the cooperative binding effect saturates (DC-SIGN+ Raji cells; heteromultivalent liposomes with Man-Lip): ~0.5
- Ki (DC-SIGN ECD [2]): 1150 ± 10 µM
- Kd (DC-SIGN ECD [3]): 370 ± 60 µM
